The target of one test is T1, mushroom tyrosinase (Agaricus bisporus, UniProt C7FF04).
T1 construct: purchased Sigma-Aldrich Chemical Company (St. Louis, MO) and MP Biomedicals (Irvine, CA)
Nature of the test: In vitro mushroom tyrosinase inhibition assay. The class given is biochemical.

The subject of a further test is HaCaT. Nature of the test: MTT cytotoxicity assay, noncancerous HaCaT keratinocytes. The settings on record: Homo sapiens, HaCaT; control noncancerous keratinocytes, MTT, 48 h; read-out: IC50 HaCaT. Type of test: cell-based, human. Summed up: (§1)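 Cells at 65–75% confluence treated with 0–40 µM compound (diluted in growth medium from 10 mM DMSO stocks) in sext- to octuplicate for 48 h; viability by MTT. A375 and HaCaT in DMEM with 10% and 5% FBS respectively; SK-MEL-28 in RPMI-1640 with 5% FBS; 37 °C, 5% CO2.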

The subject of test [1] is SK-MEL-28. Put plainly: Immunoblotting of apoptosis markers, SK-MEL-28. Type of test: cell-based, human. The settings on record: western blot, 48 h, vs untreated. The method, then: Immunoblotting was performed according to standard procedures of the Bio-Rad electrophoresis system (Bio-Rad, Hercules, CA) as described earlier. Briefly, protein extracts were obtained by lysing cells in RIPA buffer containing protease inhibitors, and were resolved by 4–12% polyacrylamide ready mini-PROTEAN TGX gel electrophoresis with sodium dodecyl sulphate (SDS) running buffer. Gels were electrotransferred to 0.45 μm nitrocellulose membranes (Bio-Rad, Hercules, CA) in Tris-glycine (TG) buffer using a Trans-Blot Turbo Transfer Pack according to manufacturer’s instructions. Membranes were incubated for 1 h in 5–7% non-fat powdered milk dissolved in TBST (Tris-buffered saline containing 0.05% Tween 20) or 5% BSA for phosphorylated proteins, to saturate nonspecific binding sites, followed by an overnight incubation (4 °C) with primary antibodies. Membranes were washed 5× with TBST and treated with suitable HRP-conjugated secondary antibodies (Amersham Life Science Inc., Arlington Height, IL) for another 2 h at room temperature, followed by additional wash steps and chemiluminescence-based detection with the Amersham ECL Prime detection reagent kit and the Bio-Rad Quantity One ChemiDoc™ detection and imaging analysis software systems as described earlier[108]^,[109].

Test [2] relates to SK-MEL-28. Put plainly: MTT antiproliferative/cytotoxicity assay, SK-MEL-28. Type of test: cell-based, human. The note with it: Homo sapiens, SK-MEL-28, 48 h, melanoma, MTT, 48 h; read-out: IC50 SKMEL-28. The procedure, abridged: as §1
For test [3], the system named is SK-MEL-28. Nature of the test: Scratch wound healing assay, SK-MEL-28. Type of test: cell-based, human. The settings on record: 0, ½IC50, IC50, 1½IC50; 48 h; vs untreated control. The method, then: (§2) The scratch wound healing assay was performed to evaluate compound P25’s ability to limit cell migration and scratch wound closure following our previously described protocol. Briefly, cells were seeded in wells of a 24-well plate and incubated to 100% confluent monolayer, following which a sterile 200 µL Gilson pipette tip was used to scratch a straight line across the centre. […] The wounded and re-epithelialisation areas were imaged at 0 h, 24 h, and 48 h using an inverted phase-contrast Olympus IX51 microscope (Olympus America Inc., Center Valley, PA) attached to an Infinity 2 digital camera. Images were processed with an Infinity analysis software version 6.5.6 (Teledyne Lumenera, Ottawa, Canada) and analysed with Adobe Photoshop. The ImageJ software (NIH, Bethesda, MD) was used to measure the migratory area of each treatment group, with results expressed as remaining percentage of unfilled wound surface at 0 h[108].

Another test relates to SCC-12. Put plainly: MTT antiproliferative/cytotoxicity assay, SCC-12. Type of test: cell-based, human.
The next test has as its system A431. Put plainly: Scratch wound healing assay, A431. Type of test: cell-based, human. The settings on record: 0, ½IC50, IC50, 1½IC50; 48 h; vs untreated control. How it is done: as §2

Each structure is given as a SMILES string.

T1 sequence (C7FF04 1-392 limits assumed): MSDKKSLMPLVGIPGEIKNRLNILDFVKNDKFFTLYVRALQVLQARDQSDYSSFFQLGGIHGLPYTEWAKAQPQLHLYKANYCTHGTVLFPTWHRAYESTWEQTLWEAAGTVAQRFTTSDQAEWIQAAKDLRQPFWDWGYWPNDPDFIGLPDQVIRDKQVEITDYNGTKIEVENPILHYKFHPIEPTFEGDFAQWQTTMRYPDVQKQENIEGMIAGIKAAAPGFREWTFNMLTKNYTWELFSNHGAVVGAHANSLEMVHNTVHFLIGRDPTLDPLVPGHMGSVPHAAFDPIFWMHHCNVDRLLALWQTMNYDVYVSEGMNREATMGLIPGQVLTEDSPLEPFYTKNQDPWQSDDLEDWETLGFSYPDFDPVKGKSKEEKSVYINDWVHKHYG

As to `O=C1CC(c2ccccc2)=NN1c1ccc(Br)cc1` [P25], the inhibition at 500 µM on mushroom tyrosinase (500 µM, single-concentration screen, read-out: % Inhibition of tyrosinase) is 21.9%. Moreover, the IC50 on mushroom tyrosinase (> 500 = not biologically relevant, read-out: IC50 Value, mushroom tyrosinase inhibition (Table S1)) was more than 500 µM; in the test with HaCaT, 30.5 ± 2 µM; with SK-MEL-28 [2], 7.6 ± 0.6 µM; in the test on SCC-12 (Homo sapiens, SCC12, 48 h, non-melanoma, MTT, 48 h, read-out: IC50 SCC-12) it was 12.2 ± 0.6 µM. Besides, the “activated caspase-3, caspase-9 and cleaved PARP levels, SK-MEL-28” value in the test with SK-MEL-28 [1] (concentration-dependent) is recorded as “substantially increased levels”. Also, the “anti-apoptotic Bcl-2 protein levels, SK-MEL-28” value in the test on SK-MEL-28 [1] was “corresponding decreases”. Besides, the “pro-apoptotic Bax expression, SK-MEL-28” value in the test on SK-MEL-28 [1] was “dose-dependent amplified expression”. The “scratch wound closure / migration, SK-MEL-28” value with SK-MEL-28 [3] was “significantly and dose-dependently decreased the scratch wound areas”. Besides, the “selectivity index (SI) SCC-12” value in the test on SCC-12 (IC50 HaCaT divided by IC50 SCC-12) is reported as approximately 2.5. Besides, the “scratch wound closure / migration, A431” value in the test with A431 is “significantly and dose-dependently decreased the scratch wound areas”.

The record behind these values is paper PMC10187093, “Synthesis, in silico modelling, and in vitro biological evaluation of substituted pyrazole derivatives as potential anti-skin cancer, anti-tyrosinase, and antioxidant agents” (Journal of Enzyme Inhibition and Medicinal Chemistry, 2023).
